How the values were obtained:
[1] = system: rat mixed cortical cultures (RMCC); assay: Aβ1-42 toxicity in rat mixed cortical cultures, LDH measurement; assay type: cell-based; conditions: for LDH release following Aβ1-42 insult: study arm A, B or C
Protocol: (§1) Whether pre-treatment with tissue kallikrein protects rat mixed cortical cultures against exposure to human amyloid beta peptide (Aβ1-42) was investigated. Cell death was analyzed by LDH-release, an indication of necrosis, and cell viability was also analyzed by neuronal cell count. First (Study Arm A), tissue kallikrein was added to the cells only prior to the Aβ1-42 insult (at −24 h and at −30 min). Whereas in the second part (Study Arm B), tissue kallikrein was added to the cells prior to (−30 min) and also at +24 h after the Aβ1-42 insult. At the +24 h time point, cell culture media were not changed (tissue kallikrein or corresponding amount of vehicle was added to the wells), whereas at −24 h and −30 min time point cell culture media were changed.
(§2) […] Cell Culture. Mixed cortical cultures were prepared from E18 Wistar rat embryos (National Animal Center, Kuopio, Finland). The cortices were dissected out, and the tissue cut to small pieces. The cells were separated by 15-min incubation with DNase and papain. The cells were collected by centrifugation (1500 rpm, 5 min). The tissue was triturated with a pipette and the cells were plated on poly-L-lysine-coated 48-well plates, 300,000 cells/cm^2, in MEM (2 g/L glucose) supplemented with 2 mM glutamine, 0.1 μg/ml gentamicin, 10% heat-inactivated fetal bovine serum (FBS-HI) and 10% heat-inactivated horse serum (HS-HI). After 3-4 h, the media were changed to MEM (2 g/L glucose) supplemented with 2 mM glutamine, 0.1 μg/ml gentamicin, 5% HS-HI. After three days in vitro, media containing MEM (2 g/L glucose) supplemented with glutamine, gentamicin, and 5% of both sera were changed to the cells. On day 6 in vitro, the unwanted cell division was inhibited by adding cytosine arabinoside (10 μM final concentration) for 24 h. The cultures were refed with MEM (2 g/L glucose) supplemented with glutamine, gentamicin, and 5% HS-HI before experiments.
(§3) Aβ1-42 Exposure. Tissue kallikrein (SEQ ID NO:1) was dissolved and further diluted in MEM supplemented with glucose, glutamine, gentamicin, and 5% HS-HI. As a control for total neuronal death, 300 μM N-methyl-D-aspartic acid (NMDA) for 48 h was used, and 10 μM Aβ1-42 for 48 h was used to induce approximately 30-50% cell death. Wells treated with media only served as 0-control. Tissue kallikrein or vehicle was pipetted to the cells −24 h and −30 min before adding 10 μM Aβ1-42 (final concentration). Tissue kallikrein or vehicle was again pipetted to the cells at +24 h after exposure.
LDH Measurement. After 48 h, the culture media of all wells were collected, and possible cell debris was removed by centrifugation (13,000 rpm for 3 min). A 100 μl aliquot was pipetted into a microtiter plate as duplicates, and equal amount of LDH reagent was pipetted to the wells. The absorbance at 340 nm was measured immediately using a 3 min kinetic measurement protocol in Multiskan ELISA reader (Labsystems, Finland). The change in absorbance/min was determined, which was directly proportional to the released LDH. The remaining supernatant (50 μl) was snap-frozen in dry ice for storage.
(§4) Data Analysis. The number of wells per compound concentration used was 6 (n=6). Five concentrations of Tissue kallikrein were studied (0.001, 0.01, 0.1, 1, 10 μg/ml) in both study arms. Statistical analysis was performed using StatsDirect statistical software. The values were analyzed by one-way ANOVA followed by Dunnet's test (comparison to the vehicle-treated group). Results are presented as mean±standard deviation (SD) and differences are considered to be statistically significant at the P<0.05 level.

[2] = system: rat mixed cortical cultures (RMCC); assay: Aβ1-42 toxicity in rat mixed cortical cultures, neuronal survival (NeuN cell count); assay type: cell-based; conditions: 1 nM, 5 nM, 10 nM, 50 nM and 100 nM; study arm A, B or C
Protocol: as §1, §2, §3
Immunocytochemistry for Neuronal Survival. For neuronal counts, the cultures were fixed with 4% paraformaldehyde in 0.01 M PBS for 30 min and washed twice with PBS. The fixed cells were first permeabilized, and non-specific binding blocked by 30 min incubation with blocking buffer containing 1% bovine serum albumin and 0.3% Triton® X-100 in PBS. Anti-neuronal nuclei antibody (anti-NeuN, dilution 1:500, Chemicon, Temecula, Calif.) was used as the primary antibody. The cells were incubated with the primary antibody for 48 h, followed by incubation with a biotinylated secondary antibody (1:200, Vector Labs) for 2 h, and the avidin-biotin-peroxidase complex (ABC-reagent, 1:200, Vector ABC Elite Kit, Vector Labs) for 2 h. The positive cells were visualized using Ni-enhanced DAB as a substrate (DAB Substrate kit, Vector Labs). The NeuN immunopositive neurons were counted using a light microscope. Altogether, 2 fields of each well were counted. The results are shown as percent viable neurons.
as §4, with “Five concentrations of Tissue kallikrein were studied (0.001, 0.01, 0.1, 1, 10 μg/ml) in both study arms.” left out

Q: “lysyl-bradykinin [kallidin, reference compound]” was tested. Which “LDH release following Aβ1-42 insult” value ([1]; 1 nM, 5 nM, 10 nM, 50 nM and 100 nM) did it give?
A: did not alter LDH release

Q: And the “LDH release following Aβ1-42 insult” value ([1]; 1 μM and 10 μM)?
A: did alter LDH release

Q: And the “cell death following Aβ1-42 insult (LDH)” value ([1]; 100 μM, compared to Aβ1-42 insult alone)?
A: significantly potentated cell death

Q: What about the “cell counts (survival) following Aβ1-42 insult” value [2] of the same substance?
A: did not affect cell counts

— patent publication US8501695B2, “Tissue kallikrein for the treatment of diseases associated with amyloid protein” (DiaMedica, Inc., priority 2007, dated 2013)
